Literature values as cited in patent publication US20040228911A1, “Vinorelbine compositions and methods of use” (NeoPharm, Inc., priority 2001, published 2004).
Counter-ions that a name gives are not always drawn.

Key:
[1] = distilled water
[2] = tested on: mitotic microtubules; details: intact tectal plates from mouse embryos
[3] = tested on: axonal microtubules; details: intact tectal plates from mouse embryos

SMILES | aqueous solubility [1] | concentration inhibiting mitotic microtubule formation, inducing a blockade of cells at metaphase [2] [µM] | concentration producing depolymerization of axonal microtubules [3] [µM]
CCC1=C[C@@H]2CN(C1)Cc1c([nH]c3ccccc13)[C@@](C(=O)OC)(c1cc3c(cc1OC)N(C)[C@H]1[C@@](O)(C(=O)OC)[C@H](OC(C)=O)[C@]4(CC)C=CCN5CC[C@]31[C@@H]54)C2 [Vinorelbine tartrate, 3′,4′-didehydro-4′-deoxy-C-norvincaleukoblastine [R—(R,R)-2,3-dihydroxybutanedioate (1:2)(salt)]] | less than 1000 mg/mL |  | 
CC[C@]1(O)C[C@@H]2CN(CCc3c([nH]c4ccccc34)[C@@](C(=O)OC)(c3cc4c(cc3OC)N(C)[C@H]3[C@@](O)(C(=O)OC)[C@H](OC(C)=O)[C@]5(CC)C=CCN6CC[C@]43[C@@H]65)C2)C1 [vinblastine] |  | 2 | 30
CC[C@]1(O)C[C@H]2CN(CCc3c([nH]c4ccccc34)[C@@](C(=O)OC)(c3cc4c(cc3OC)N(C=O)[C@H]3[C@@](O)(C(=O)OC)[C@H](OC(C)=O)[C@]5(CC)C=CCN6CC[C@]43[C@@H]65)C2)C1 [vincristine] |  | 2 | 5
CCC1=C[C@@H]2CN(C1)Cc1c([nH]c3ccccc13)[C@@](C(=O)OC)(c1cc3c(cc1OC)N(C)[C@H]1[C@@](O)(C(=O)OC)[C@H](OC(C)=O)[C@]4(CC)C=CCN5CC[C@]31[C@@H]54)C2 [vinorelbine, 3′,4′-didehydro-4′-deoxy-C-norvincaleukoblastine [R—(R,R)-2,3-dihydroxybutanedioate (1:2)(salt)]] |  | 2 | 40
